Patent publication US20230057847A1, “GLP2 RECEPTOR AGONISTS AND METHODS OF USE” (The Scripps Research Institute, priority 2019, published 2023)

Columns and labels:
[1] = test system: mouse model of environmental enteric dysfunction (EED); assay: Weaning undernutrition mouse model of environmental enteric dysfunction (EED); type: in vivo, mice
Protocol: A weaning undernutrition model was used to assess the ability of GLP2-2G-10Nle-1K-EX4-K5 to treat environmental enteric dysfunction (EED). All dams were placed on an isocaloric Northeast Brazil (Regional Basic Diet—RBD), which was moderately deficient in protein, fat and minerals when their pups were 10 days old. At weaning (3 weeks of age), pups were placed on either a standard control diet (CD) or continued on RBD. At 4 weeks of age, weanlings were given drug or placebo (0.1 mg/kg formulated in PBS (vehicle)) once a day subcutaneously for 2-3 weeks. Bodyweight and food consumption were measured twice weekly. Stool was collected at weaning, 6 weeks of age, and 8 weeks of age for calorimetry and microbiome. Oral FITC-dextran was used as a measurement of barrier function. At 6 weeks of age, mice were euthanized, and jejunal tissue was collected for morphology, immunohistochemistry, and for chamber analysis of transmucosal resistance and permeability.

[2] = test system: mouse model of acute colitis; details: in vivo
Protocol: (§2) Each group contained 6 mice, except for group A, which contained 4.
(§3) The body weight was monitored daily. If animals lost more than 20% of their bodyweight, they were euthanized. […] On day 11, animals were euthanized, and a necropsy was performed. The terminal bleed was collected into a heparinized collection tube and processed into plasma. The small intestine and colon were collected to measure weight and length. GI tissues were collected for histology.

cyno monkey GLP2R = target: T1, cyno monkey GLP2R (Macaca fascicularis, UniProt G1E7B0); assay: In vitro potency on cyno monkey GLP2R (665/615 ratio); type: cell-based
T1 sequence (G1E7B0 1-553): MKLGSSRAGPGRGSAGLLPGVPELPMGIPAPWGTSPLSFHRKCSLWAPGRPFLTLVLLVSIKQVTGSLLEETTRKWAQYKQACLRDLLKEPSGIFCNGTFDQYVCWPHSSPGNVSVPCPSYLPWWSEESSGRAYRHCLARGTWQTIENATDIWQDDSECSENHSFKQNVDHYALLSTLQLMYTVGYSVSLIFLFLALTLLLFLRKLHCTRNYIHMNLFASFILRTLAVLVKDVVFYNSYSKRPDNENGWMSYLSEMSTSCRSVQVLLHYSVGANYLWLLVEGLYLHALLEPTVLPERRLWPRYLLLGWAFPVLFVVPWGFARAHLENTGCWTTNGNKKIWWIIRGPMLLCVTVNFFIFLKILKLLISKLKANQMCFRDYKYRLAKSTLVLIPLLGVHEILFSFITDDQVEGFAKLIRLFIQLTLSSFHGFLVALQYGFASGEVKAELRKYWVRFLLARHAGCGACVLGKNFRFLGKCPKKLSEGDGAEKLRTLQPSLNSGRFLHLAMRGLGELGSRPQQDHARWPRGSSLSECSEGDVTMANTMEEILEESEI

[3] = test system: mouse model of chronic colitis; assay: Chronic DSS-induced colitis in C57BL/6 mice (GLP2-2G-1-EX4-L5A); type: in vivo; details: 0.1 and 0.3 mg/kg SC QD 7 days, teduglutide 0.3 mg/kg SC QD
Protocol: Animals were treated daily for 7 days during the last DSS-induction cycle. Treatment was administered either subcutaneously (S) or intraperitoneally (IP) either once daily (QD) or twice daily (BID).
(§1) Bodyweight was monitored 3 times a week. Pharmacokinetic collection occurred 3 and 4 days prior to necropsy. At day 33, a necropsy was performed, and measurements were taken. These measurement included collecting terminal bleed; dissecting out the small intestine; measuring the length and weight of the small intestine; and recording the length and weight of the empty large intestine.

[4] = test system: chronic DSS-induced colitis model; assay: Chronic DSS-induced colitis in C57BL/6 mice (GLP2-2G-10Nle-1-Ex4-L5A); type: in vivo; details: teduglutide 0.5 mg/kg BID
Protocol: as §1, with “Treatment was administered either subcutaneously (S) or intraperitoneally (IP) either once daily (QD) or twice daily (BID). […] Bodyweight” for “Bodyweight”, “Pharmacokinetic collection occurred 3 and 4 days prior to necropsy.” left out

mouse GLP2R = target: T2, mouse GLP2R (Mus musculus, UniProt Q5IXF8); assay: In vitro potency on mouse GLP2R (cAMP, 665/615 ratio); type: cell-based; details: read-out: mGLP-2R IC50
T2 sequence (Q5IXF8 1-512): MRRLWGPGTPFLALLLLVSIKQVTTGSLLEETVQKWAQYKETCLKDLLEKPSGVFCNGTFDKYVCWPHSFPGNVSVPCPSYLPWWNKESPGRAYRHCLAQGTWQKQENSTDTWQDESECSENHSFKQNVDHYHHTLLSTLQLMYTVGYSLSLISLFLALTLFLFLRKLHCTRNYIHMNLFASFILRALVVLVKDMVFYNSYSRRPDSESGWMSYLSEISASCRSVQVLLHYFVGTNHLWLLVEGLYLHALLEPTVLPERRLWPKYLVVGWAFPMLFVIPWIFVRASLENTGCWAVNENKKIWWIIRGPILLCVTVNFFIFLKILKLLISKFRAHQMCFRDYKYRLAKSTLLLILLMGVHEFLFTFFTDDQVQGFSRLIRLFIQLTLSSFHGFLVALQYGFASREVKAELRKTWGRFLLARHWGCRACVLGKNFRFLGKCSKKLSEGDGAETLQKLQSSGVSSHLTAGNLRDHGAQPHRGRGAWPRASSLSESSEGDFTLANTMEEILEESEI
Description: To determine the potency of the long-acting GLP2R agonists against mouse GLP2R.

[5] = test system: mouse model of acute colitis; assay: DSS-induced acute colitis in C57BL/6 mice (GLP2-2G-10Nle-1K-EX4-K5)
Protocol: as §2, §3

CC[C@H](C)[C@H](NC(=O)[C@H](Cc1ccccc1)NC(=O)[C@H](CC(=O)O)NC(=O)[C@H](CCCNC(=N)N)NC(=O)[C@H](C)NC(=O)[C@H](C)NC(=O)[C@H](CC(C)C)NC(=O)[C@H](CC(N)=O)NC(=O)[C@H](CC(=O)O)NC(=O)[C@H](CC(C)C)NC(=O)[C@@H](NC(=O)[C@@H](NC(=O)[C@H](CC(N)=O)NC(=O)[C@H](CCSC)NC(=O)[C@H](CCC(=O)O)NC(=O)[C@H](CC(=O)O)NC(=O)[C@H](CO)NC(=O)[C@H](Cc1ccccc1)NC(=O)[C@H](CO)NC(=O)CNC(=O)[C@H](CC(=O)O)NC(=O)CNC(=O)[C@@H](N)Cc1c[nH]cn1)[C@@H](C)O)[C@@H](C)CC)C(=O)N[C@@H](CC(N)=O)C(=O)N[C@@H](Cc1c[nH]c2ccccc12)C(=O)N[C@@H](CC(C)C)C(=O)N[C@H](C(=O)N[C@@H](CCC(N)=O)C(=O)N[C@H](C(=O)N[C@@H](CCCCN)C(=O)N[C@H](C(=O)N[C@H](C(=O)N[C@@H](CC(=O)O)C(=O)O)[C@@H](C)O)[C@@H](C)CC)[C@@H](C)O)[C@@H](C)CC [Teduglutide, teduglutide, reference compound]
intestinal permeability (FITC-dextran) ([1]; CD females vs untreated): significant decreases in permeability | small intestine wet body weight/body weight ([1]; CD females vs untreated): significant increase | crypt depths ([1]; CD males vs untreated): longer crypt depths | intestinal permeability (FITC-dextran) ([1]; CD males vs untreated): trend towards decreased permeability | small intestine wet body weight/body weight ([1]; CD males vs untreated): significant increase | villus heights ([1]; CD males vs untreated): significantly longer villus heights | intestinal permeability (FITC-dextran) ([1]; RBD females or RBD males vs untreated): did not significantly affect the permeability | small intestine wet body weight/body weight ([1]; RBD males vs untreated): significant increase | length of the small intestine ([1]; animals weaned to CD and to RBD diet, vs untreated): significant increase | weight gain ([1]; male and female RBD mice weaned to CD, 0.1 mg/kg SC once a day): trends towards greater weight gain | weight ([1]; male and female mice weaned to RBD, 0.1 mg/kg SC once a day): trends towards worsening weight | detectability in plasma after dosing [2]: not detectable after 3 hours post treatment | EC50 (cyno monkey GLP2R): 0.009 nM | bodyweight loss [3]: did not show the same loss in percent of bodyweight | colon length ([4]; doses of 0.1 mg/kg and higher, vs group B): significantly increased | small intestine length ([4]; doses of 0.1 mg/kg and higher, vs untreated): significant increases | colon weight ([4]; doses of 0.3 mg/kg or higher, vs untreated): increased | IC50 (mouse GLP2R): 0.07 nM | bodyweight over time ([5]; 3% DSS 5 days, daily treatment 11 days, K5 0.1-1 mg/kg SC, teduglutide 0.5 mg/kg SC, cyclosporin 20 mg/kg IP): did not exhibit significant changes in bodyweight | small intestine length and weight ([5]; groups C-F vs untreated mice): significantly increased | colon length ([5]; groups D-F (K5 0.3, 1 mg/kg; teduglutide 0.5 mg/kg) vs group B): significantly increased | villus height ([5]; jejunum, groups C-F vs untreated mice (groups A-B)): significant increase
